In patent publication US11440880B2, “Thalidomide analogs and methods of use” (The USA, as represented by the Secretary, Department of …, priority 2015, dated 2022):

Experiments:
[1] = tested on: mpo:GFP zebrafish embryos (neutrophil migration to the wound site); assay: mpo:GFP zebrafish fin-clip neutrophil migration (inflammation) assay; format: in vivo; design: mpo:GFP inflammation n (survived/tested): concentration or dose not given beside the values; settings: for minimal effective concentration: Danio rerio, Neutrophil, lowest concentration producing an effect, compounds not producing an effect shown at the highest evaluated concentration; for mpo:GFP inflammation n (survived/tested): embryos survived/tested at the concentration given
Excerpt: (§1) Zebrafish embryology: The use of zebrafish embryo (Danio rerio) bioassays as a preclinical model in the classification of novel compounds has increased in recent years due to several factors including; low cost, ease of maintenance, speed of embryonic development, transparency of the embryos and genetic conservation between zebrafish and humans (Howe et al., Nature 2013; 496:498; Therapontos et al., PNAS 2009, 106:8573; Mahony et al., PNAS 2013, 110:12703; Beedie et al., Oncotarget 2016, 7(22):33237; Beedie et al., Mol. Cancer Ther. 2015, 14(10):2228). Two established zebrafish reporter lines were used—the fli1:EGFP line, where the fli1 promoter drives expression of enhanced green fluorescent protein within the developing vasculature (Lawson et al., 2002), and the Tg(mpo::EGFP) line (also known as mpo:GFP), which expresses green fluorescent protein via the neutrophil specific myeloperoxidase promoter (Renshaw et al., Blood 2006, 108:3976). The use of these zebrafish transgenic reporter lines allows for the identification of potential anti-angiogenic and anti-inflammatory compounds respectively, and both have been used previously to successfully classify the action of thalidomide analogs (Therapontos et al., 2009; Mahony et al., 2013; Beedie et al., Oncotarget 2016, 7(22):33237; Beedie et al., Mol. Cancer Ther. 2015, 14(10):2228). Zebrafish embryos were treated with analogs as previously described (Mahony et al., 2013). Briefly, fli1:EGFP embryos were collected and embryos were allowed to develop for 24 hours. Embryos were dechorionated manually and exposed to test compounds or vehicle control for a further 24 hours, imaged and analyzed for intersegmental vessel (ISV) growth. At 24 hours post fertilisation (hpf) the ISVs were ideal to study to visualize and analyze the actions of compounds on angiogenesis. At this time point ISVs were rapidly forming beneath the developing head, over the body and had yet to form in the tail (Lawson and Weinstein, Developmental Biology 2002, 248:307; Therapontos and Vargesson, Developmental Dynamics 2010, 239:2761). Additionally, these sprouts would go on to form the bilateral dorsal longitudinal anastomotic vessels. By treating before this fusion and formation occurs, the effect of each compound on the individual vessels as well as overall patterning structural integrity (Isogai et al., Development 2003, 130:5281) could be determined. Tg(mpo::EGFP) were tail fin clipped as previously detailed (Renshaw et al., 2006; Mahony et al., 2013; Beedie et al., Oncotarget 2016, 7(22):33237; Beedie et al., Mol. Cancer Ther. 2015, 14(10):2228) and incubated with test compounds or vehicle control at 72 hours post fertilization. Fish were imaged at 24 hours and the number of migratory neutrophils present at the wound site were counted. Compounds inducing an at least 50% reduction of neutrophils to the wound site were considered to have anti-inflammatory properties in this system. All larvae were assessed for viability and morphological integrity.
To assess the immunomodulatory effects of the thalidomide analogs, the mpo:gfp transgenic zebrafish line (Renshaw et al., Blood 2006, 108:3976-3978) was utilized because it is an accepted model of inflammation, and can be used to test the effect of anti-inflammatory agents. These embryos express GFP-tagged myeloperoxidase, where green fluorescence marks the neutrophil cells involved in the inflammatory response process, for example following injury, from 72 hours post fertilization (Renshaw et al., 2006; Mahony et al., 2013; Beedie et al., Oncotarget 2016, 7(22):33237). At 72 hpf the dorsal third of the tail fin was removed and the embryos were immersed in the desired compound or vehicle (FIGS. 5A-5C). The embryos were examined for the effect on the inflammatory response quantified as an induction and migration of neutrophils to the wound site 24 hours later.

[2] = tested on: fli1:EGFP zebrafish embryos (intersegmental vessel growth); assay: fli1:EGFP zebrafish embryo angiogenesis assay; format: in vivo; design: fli1:EGFP angiogenesis n (survived/tested): concentration or dose not given beside the values; settings: for minimal effective concentration: Danio rerio, lowest concentration producing an effect, compounds not producing an effect shown at the highest evaluated concentration; for fli1:EGFP angiogenesis n (survived/tested): embryos alive after 24 hours of exposure
Excerpt: as §1
To determine if the thalidomide analogs had any effect on angiogenesis, fli1:EGFP embryos (Lawson and Weinstein, Developmental Biology 2002, 248:307-318) were exposed to either vehicle or a compound of interest, over a range of concentrations and over a range of time points starting at 24 hpf. Images were obtained at three time points over 24 hours after exposure to the compounds. The best concentration and time point were selected. CPS49, a compound that is chemically and structurally similar to thalidomide breakdown products, and is tetrafluorinated (which adds stability and bioactivity to the compound) and that causes severe limb defects in chicken embryos, was used as a positive control. The embryos were imaged at 48 hpf (FIGS. 3A3L) and analyzed for both vessel formation and the extent of growth of the vasculature. […]

TNF-α protein = TNF-α protein level (ELISA) in LPS-challenged RAW 264.7 cells; format: cell-based, mouse; design: key: NS=not significant; a “+” sign=anti-inflammatory or increased cell numbers; a “−” sign=cell toxicity or pro-inflammatory; settings: LPS 30 or 60 ng/mL, 24 h
Protocol: Nitrite levels in the culture media were measured by use of the Griess Reagent System (Promega, Madison, Wis.), following the manufacturer's protocol. The O.D. of unknown samples was read at 520 nm λ, compared to a sodium nitrite standard curve (1.5 μM to 100 μM) and nitrite measured media concentrations expressed as μM units. As the lowest nitrite concentration on the Griess Reagent System standard curve was 1.5 μM, this was chosen as the effective cutoff for defining measurable nitrite concentrations. TNF-α protein levels were measured by use of an ELISA specific for mouse TNF-α protein (BioLegend, San Diego, Calif.) and are expressed as a % change from their appropriate control or as pg/ml.
(§2) RAW 264.7 cells obtained from ATCC (Manassas, Va., USA) were grown in DMEM media supplemented with 10% FCS, penicillin 100 μg/ml and streptomycin 100 μg/ml, and maintained at 37° C. and 5% CO2. Cells were seeded in 24 well plates and, 24 hours later, were utilized in studies. One hour prior to the initiation of any study, the seeding media was replaced with fresh media (1 mL), and the cells were allowed to equilibrate at 37° C. and 5% CO2.
(§3) RAW 264.7 cells were challenged with LPS (Sigma, St Louis, Mo.: serotype 055:B5) from at a final concentration of 30 or 60 ng/mL. This concentration of LPS in RAW 264.7 cells induces a sub-maximal rise in both TNF-alpha and nitrite levels without a loss in cellular viability. This sub-maximal rise is useful for assessing whether the addition of an experimental drug can either lower or further raise levels of TNF-α and nitrite. Twenty four hours following the addition of LPS, conditioned media was harvested and analyzed for quantification of secreted TNF-α protein and nitrite levels. Fresh media was replaced into the wells and cell viability was then assessed.
(§4) Thalidomide and analogs were prepared in tissue culture grade DMSO (Sigma). RAW 264.7 cells were pretreated with thalidomide, analogues or vehicle one hour prior to a challenge with LPS. The effects of various concentrations of thalidomide analogues were assessed. All compounds were synthesized to a chemical purity of >99.5%, as assessed by chemical characterization by a combination of 1H NMR, 13C NMR and GC/MS analyses (Bruker AC-300 spectrometer, together with elemental analyses (Atlantic Microlab, Inc., Norcross, Ga.).

RAW 264.7 cells = assay: Cell viability (CellTiter 96 AQueous One) of LPS-challenged RAW 264.7 cells; format: cell-based, mouse; design: key: NS=not significant; a “+” sign=anti-inflammatory or increased cell numbers; a “−” sign=cell toxicity or pro-inflammatory
Protocol: The CellTiter 96® AQueous One Solution Cell Proliferation Assay (Promega, Madison, Wis.) is routinely used as an assay of cell proliferation, and was used according to the manufacturer's recommendations. Changes in cellular health status are determined by use of indirect measures related to the formation of a colored tetrazolium dye product that can be measured spectrophotometrically at 490 nm λ. […] Optical densities (expressed as O.D.s) were measured after various incubations.
as §2, §3, §4

Compound | minimal effective concentration [1] | mpo:GFP inflammation n (survived/tested) [1] | minimal effective concentration [2] | fli1:EGFP angiogenesis n (survived/tested) [2] | TNF-α (TNF-α protein; 1 μM) | TNF-α (TNF-α protein; 10 μM) | TNF-α (TNF-α protein; 30 μM) | Viability (RAW 264.7 cells; 1 μM) | Viability (RAW 264.7 cells; 10 μM) | Viability (RAW 264.7 cells; 30 μM) | TNF-α (TNF-α protein; 3 μM) | Viability (RAW 264.7 cells; 3 μM) | anti-inflammatory activity (inhibition of neutrophil migration) ([1]; in words)
O=C1NC(=S)CCC1N1C(=O)c2cccc(O)c2C1=O (centres unmarked) [Compound 14] | 10 µg/mL | 14/24 | 10 µg/mL | 7/23 |  |  |  |  |  |  |  |  | 
N=C1N/C(=N\C2CCC(=O)NC2=O)c2ccccc21 (centres unmarked) [Compound 55] | 200 µg/mL | 6/11 | 100 µg/mL | 6/10 |  |  |  |  |  |  |  |  | 
O=C1CCC(N2C(=O)c3ccc(OCc4ccccc4)cc3C2=O)C(=O)N1 (centres unmarked) [Compound 20] | 10 µg/mL | 8/14 | 10 µg/mL | 51/79 |  |  |  |  |  |  |  |  | 
Nc1ccc2c(c1)C(=O)N(C1CCC(=O)NC1=O)C2 (centres unmarked) [Compound 34] | 100 µg/mL | 7/9 | 100 µg/mL | 13/20 |  |  |  |  |  |  |  |  | 
O=C1CCC(N2Cc3ccccc3C2=O)C(=O)N1CSC(=S)NC1CCCCC1 (centres unmarked) [Compound 52] | 100 µg/mL | 7/21 | 100 µg/mL | 6/7 | + | + | + | NS | NS | NS |  |  | 
O=C1NC(=S)CCC1N1C(=O)c2ccc(O)cc2C1=O (centres unmarked) [Compound 17] | 10 µg/mL | 5/5 | 15 µg/mL | 26/50 |  |  |  |  |  |  |  |  | 
O=C1c2cccc([N+](=O)[O-])c2C(=O)N1c1nc2ccc(C(F)(F)F)cc2s1 [Compound 60] | 1 µg/mL | 5/15 | 10 µg/mL | 3/10 |  |  |  |  |  |  |  |  | 
Nc1ccc2c(=O)n(C3CCC(=O)NC3=O)c(=O)oc2c1 (centres unmarked) [Compound 24] | 50 µg/mL | 6/6 | 50 µg/mL | 13/25 |  |  |  |  |  |  |  |  | 
Nc1cccc2c1CN(C1CCC(=S)NC1=O)C2=S (centres unmarked) [Compound 32] | 10 µg/mL | 6/15 | 100 µg/mL | 21/25 |  | + | + |  | NS | NS | + | NS | 
CC(=O)Oc1ccc2c(c1)C(=O)N(C1CCC(=O)NC1=O)C2=O (centres unmarked) [Compound 18] | 50 µg/mL | 14/14 | 50 µg/mL | 24/43 |  |  |  |  |  |  |  |  | 
Nc1cccc2c1CN(C1CCC(=S)NC1=O)C2=O (centres unmarked) [Compound 30] | 10 µg/mL | 10/10 | 10 µg/mL | 4/8 |  |  |  |  |  |  |  |  | 
O=C1CCC(N2Cc3ccc([N+](=O)[O-])cc3C2=O)C(=O)N1 (centres unmarked) [Compound 33] | 10 µg/mL | 4/15 | 100 µg/mL | 15/21 |  |  |  |  |  |  |  |  | 
N=C1c2ccccc2C(=O)N1C1CCC(=O)NC1=O (centres unmarked) [Compound 56] | 10 µg/mL | 7/8 | 10 µg/mL | 9/19 |  |  |  |  |  |  |  |  | 
CC(=O)Oc1ccc2c(c1)C(=O)N(C1CCC(=S)NC1=O)C2=O (centres unmarked) [Compound 19] | 1 µg/mL | 5/12 | 1 µg/mL | 13/51 |  |  |  |  |  |  |  |  | 
O=C1NC(=S)CCC1N1C(=O)c2ccccc2C1=S (centres unmarked) [Compound 2, 2,3-dihydro-2-(2-oxo-6-thioxo-3-piperidinyl)-3-thioxo-1H-isoindol-1-one] | 10 µg/mL | 26/30 | 10 µg/mL | 21/24 |  |  |  |  |  |  |  |  | significant anti-inflammatory action
CC(C)Nc1ccc2c(c1)C(=O)N(C1CC=CNC1=O)C2 (centres unmarked) [Compound 46, 6-Isopropylamino-2-(3,4-dihydro-2-pyridone-3-yl)phthalimidine] | 10 µg/mL | 24/50 | 10 µg/mL | 14/30 |  |  |  |  |  |  |  |  | 
